The test system of one data set is post-infectious IBS. As to conditions: recent study, Dunlap et al. 2003; cited from earlier work.
Data set [1] relates to functional dyspepsia or irritable bowel syndrome. Put plainly: Veterinary case reports: dogs diagnosed with functional dyspepsia or irritable bowel syndrome given zinc-carnosine. It counts as in vivo. As to conditions: dog, 30 mg/day. An excerpt:
Ellie, a three year old, sixteen pound West Highland Terrier presented to vet with visible discomfort, loose stools and intermittent diarrhea. […] The diagnosis of functional dyspepsia or irritable bowel syndrome made.
Katelyn, a six year old, fourteen pound Boston Terrier presented to vet with visible discomfort, diarrhea, vomiting and inappetence. […] Blood tests indicated no abnormalities and a stool samples indicated the dog was parasite free. The diagnosis of functional dyspepsia or irritable bowel syndrome made.

Data set [2] shares this test system. The experiment in a line: Veterinary case report: cat diagnosed with functional dyspepsia or irritable bowel syndrome given zinc-carnosine. It counts as in vivo. The settings on record: 15 mg BID. An excerpt: A five year old, eight pound Siamese cat presented to vet with severe diarrhea, severe visible discomfort, inappetence and losing weight. […] Blood tests indicated no abnormalities and a stool samples indicated the cat was parasite free. The diagnosis of functional dyspepsia or irritable bowel syndrome made.

For data set [3] the following is noted: based on current evidence; cited from earlier work.
For data set [4], the system named is human umbilical vein endothelial cells. As to conditions: cited from earlier work.
Data set [5] has as its system human foreskin fibroblast cells. As to conditions: cited from earlier work.
Data set [6] relates to human MCT3-E1 cells (osteoblasts). As to conditions: cited from earlier work.
The subject of another data set is water immersion stress. As to conditions: cited from earlier work.
Data set [7] relates to HCl-ethanol gastric damage. The settings on record: cited from earlier work.
The next data set has as its system TNBS model of colitis. The settings on record: cited from earlier work.
In a further data set the test system is gastric ulcer. As to conditions: clinical trials, versus placebo; cited from earlier work.

As to `C[C@]12C=CC(=O)C=C1CC[C@@H]1[C@@H]2[C@@H](O)C[C@@]2(C)[C@H]1CC[C@]2(O)C(=O)CO` [predinisolone], in the data set with post-infectious IBS, the “efficacy for treating post-infectious IBS” value is “ineffective”.
Take Zinc-Carnosine: the “improvement of conditions (discomfort, diarrhea, vomiting, inappetence)” value in data set [1] (course during treatment) is reported as “conditions improved on a daily basis”. Also, the “symptoms at check up” value in [1] (four week check up) and in data set [2] (four week check up) was “No further symptoms” throughout. The “improvement of condition (discomfort, loose stools, diarrhea)” value in data set [1] (two week and four week follow-up visits) is reported as “significant improvement”. The “improvement of conditions (diarrhea, discomfort, inappetence, weight loss)” value in data set [2] (within seven days) is “conditions improved significantly”. Besides, the side effects result in data set [3] is reported as “little or no side effects”. For the same compound, the “stimulation of growth (proliferation)” value in data set [4], in [5] and in data set [6] was “able to stimulate growth (proliferation)” throughout. The “effect in animal model of gut ulceration and gross inflammation” value (in the data set on water immersion stress; in [7]; in the data set on TNBS model of colitis) was “beneficial effects” each time. In the data set with gastric ulcer, the “effect in treatment of gastric ulcer” value is given as “beneficial effect above placebo”.

The values above are taken from patent US20100040711A1, “ZINC-CARNOSINE -BASED TREATMENT FOR NON ULCER (FUNCTIONAL ) DYSPEPSIA & IRRITABLE BOWEL SYNDROME IN HUMANS AND OTHER ANIMALS” (priority 2008, published 2010).
